Measurements: patent US20150087722A1, “TREATMENT FOR BREAST TUMOR CELL METASTASIS” (China Medical University, priority 2012, published 2015)
Read-outs that look alike come from different tables or passages of the source.

Assays:
[1] = tested on: breast tumor cells MDA-MB-231; experiment: transwell invasion assay; assay type: cell-based, human; conditions: 0.5, 1 and 2 μM, 20 h, with increasing concentration
Method: (§1) In the transwell invasion assay, the Matrigel which was a component of ECM was used to imitate the environment between cells. When the cells in a BD Matrigel™ Invasion Chamber were stimulated by growth factors in the Matrigel matrix, the cells secreted some matrix proteolytic enzymes to degrade the Matrigel, so as to facilitate invasion of cells. If the cells had strong invasion capability, the cells can be observed on the filter membrane after staining. In FIG. 15, 800 μl 10% FBS-DMEM was added into the transwell as a chemoattractant, and then 500 μl cells (1×10^5) were planted in the transwell. DMEM culture medium included no FBS and the compound II of 0.5, 1 and 2 μM. The breast tumor cells MDA-MB-231 were then cultured at an atmosphere of 5% CO2 in an incubator at 37° C. for 20 h. Subsequently the cells were stained with Giemsa for 15 min, and observed by taking photographs at a 200× field of an optical microscope. In the test each time each group was represented by a medium value of three repeat transwells. In FIGS. 16A, 16B and 17, the breast tumor cells MDA-MB-231 were replaced by the breast tumor cells MDA-MB-468, the breast tumor cells MDA-MB-435 and the human normal breast cells MCF-10A, respectively. Furthermore, in FIGS. 16A and 16B, the compound II was replaced by the compound I of 0.5, 1 and 2 μM and the compound I of 2.5, 5 and 7.5 μM. In FIG. 17, the compound II was replaced by compound I of 2 μM, TNF-α/TGF-β of 10 ng/ml, and compound I of 2 μM and TNF-α/TGF-β of 10 ng/ml. In the quantitative method of cell migration test, steps included randomly choosing 9 fields at the lower surface of the transwell membrane, counting the total cell number in each field; regarding the medium value of cell number in the 9 fields as an index of chemotaxis migration of breast tumor cells in each transwell, and each group of each test was represented by the medium value of 3 repeat transwells.

[2] = tested on: Ovarian Tumor Cell (SKOV3 cell strain); experiment: MTT cell viability assay; assay type: cell-based; conditions: Homo sapiens, SK-OV-3
breast tumor cells MCF-7 = experiment: MTT cell viability assay; assay type: cell-based; conditions: Homo sapiens, MCF7
Method: (§2) The breast tumor cells (MDA-MB-231, MDA-MB-435, MDA-MB-453, MDA-MB-468 and MCF-7) were commercially obtained from the bioresource collection and research center (BCRC), and were cultured in a 10% FBS-DMEM culture medium (i.e., a DMEM culture medium including 10% fetal bovine serum (FBS)). The human breast cell MCF-10A was cultured in a 5% FBS-DMEM culture medium (including F12, insulin, hydrocortisol and epidermal growth factor). An environment of 5% CO2 was kept in the incubator at a constant temperature of 37° C. When a certain number of cells were generated in culture, the culture medium was removed after being centrifuged for 10 min at a rate of 900 rpm. The culture medium was replaced in 24 h before the experiment, and the number of cells was counted by a hemocytometer.
(§3) The cell viability was determined by a method of […] (MTT assay). The test method for assaying cell viability refers to steps provided by Parada-Turska et al.
(§4) The breast tumor cells MDA-MB-231 were inoculated in a 24-well plate (2.5×10^5 cells/well), and the next day after cells were adhered to the wall of the plate, the cells were washed with PBS. 1% FBS-DMEM culture medium was then added so as to synchronize cells. The next day compound II having different concentrations were added into the wells, and the cells were subsequently cultured in an atmosphere of 5% CO2 at 37° C. for 24 h. The cells were washed with PBS once, and 400 μl MTT agent was added in each well so as to react for 4 h. Then 400 μl 10% SDS was added in each well so as to react for 12 h. 200 μl supernatant was taken from the well and then added into a 96-well microplate, so as to measure the absorbance at 570 nm.

[3] = tested on: human normal breast cells MCF-10A; experiment: MTT cell viability assay; assay type: cell-based
Method: as §2, §3, §4

[4] = tested on: Rat Skin Tumor Cell (B16F1 cell strain); experiment: MTT cell viability assay; assay type: cell-based; conditions: Mus musculus, B16-F1
[5] = tested on: breast tumor cells MDA-MB-435; experiment: transwell invasion assay; assay type: cell-based, human; conditions: 2.5, 5 and 7.5 μM, with increasing concentration
Method: as §1

[6] = tested on: breast tumor cells MDA-MB-468; experiment: transwell invasion assay; assay type: cell-based, human; conditions: 0.5, 1 and 2 μM, with increasing concentration
Method: as §1

[7] = tested on: human normal breast cells MCF-10A stimulated by TNF-α/TGF-β; experiment: F-actin immunofluorescence staining (cell morphology); assay type: cell-based; conditions: 2 μM with TNF-α/TGF-β 10 ng/ml, 24 h
Description: FIG. 5 illustrates photographs taken at a 200× field under a fluorescence microscope, where a primary antibody F-actin is used and the cells are stained through the immunofluenrence staining method. Specifically, the photographs noted as “Control” in the first column show the morphologies of the human normal breast cells MCF-10A without being treated with the compound I and TNF-α/TGF-β. The photographs noted as “TNF-αTGF-β” in the second column show the morphologies of the human normal breast cells MCF-10A treated with TNF-α/TGF-β wherein the concentrations of TNF-α and TGF-β were 10 ng/ml. The photographs noted as “Compound I (2 μM)” in the third column show the morphologies of the human normal breast cells MCF-10A treated with the compound I having a concentration of 2 μM. The photographs noted as “TNF-α/TGF-β Compound I (2 μM)” in the fourth column show the morphologies of the human normal breast cells MCF-10A treated with the compound I, TNF-α and 10 TGF-β for 24 h, wherein the concentrations of the compound I, TNF-α and 10 TGF-β were 2 μM, 10 ng/ml and 10 ng/ml, respectively.

IC50 [2] [µM]	IC50 (breast tumor cells MCF-7; 0-40 μM for 24 h, FIG. 1A, read-out: IC50 for inhibiting the MCF-7) [µM]	IC50 (breast tumor cells MCF-7; viability, MCF-7 cell strain, Table 1, read-out: IC50) [µM]	IC50 [4] [µM]	SMILES	migration of breast tumor cells MDA-MB-231 (transwell) [1]	IC50 ([3]; MCF-10A, 0-40 μM for 24 h, FIG. 1A, read-out: IC50 for inhibiting the normal breast cells MCF-10A) [µM]	IC50 ([3]; viability, MCF-10A cell strain, Table 1, read-out: IC50) [µM]	migration of breast tumor cells MDA-MB-435 (transwell) [5]	migration of breast tumor cells MDA-MB-468 (transwell) [6]	cell morphology (F-actin staining) [7]
15.3	~30	27.7	12.8	COC1=C(OC)C(=O)C(C)=C(C)C1=O [compound II]	significantly reduced	~25	24.1	–	–	–
–	–	–	–	COC1=C(OC)C(=O)C(C)=CC1=O [compound I]	–	–	–	also significantly reduced	significantly reduced	still was epithelial-like
